# Assay results reported in ChEMBL document CHEMBL3046292, “The effects of luteolin on phenoloxidase and the growth of Spodoptera exigua (Hubner) larvae (Lepidoptera: Noctuidae)” (J Pestic Sci, 2010).
# Calls of active or inactive are those of the source. The calls are words filed in the database; no cut-off is given here.
# Key:
# Spodoptera exigua [1] = test: Insecticidal activity against third-instar Spodoptera exigua larvae assessed as pupation at 0.8 g/l (reference value: 96.67 +/- 1.40%); format: functional
# Spodoptera exigua [2] = test: Insecticidal activity against third-instar Spodoptera exigua larvae assessed as pupation at 0.4 g/l (reference value: 96.67 +/- 1.40%); format: functional
# Spodoptera exigua [3] = test: Insecticidal activity against third-instar Spodoptera exigua larvae assessed as pupation at 0.2 g/l (reference value: 96.67 +/- 1.40%); format: functional
# Spodoptera exigua [4] = test: Insecticidal activity against third-instar Spodoptera exigua larvae assessed as pupation at 0.1 g/l (reference value: 96.67 +/- 1.40%); format: functional
# Spodoptera exigua [5] = test: Insecticidal activity against third-instar Spodoptera exigua larvae assessed as per pupa weight at 1.6 g/l by pupa weight inhibition assay (reference value: 0.1054 +/- 0.01 g/pupae); format: functional
# Spodoptera exigua [6] = test: Insecticidal activity against third-instar Spodoptera exigua larvae assessed as per pupa weight at 0.8 g/l by pupa weight inhibition assay (reference value: 0.1054 +/- 0.01 g/pupae); format: functional
# Spodoptera exigua [7] = test: Insecticidal activity against third-instar Spodoptera exigua larvae assessed as per pupa weight at 0.4 g/l by pupa weight inhibition assay (reference value: 0.1054 +/- 0.01 g/pupae); format: functional
# Spodoptera exigua [8] = test: Insecticidal activity against third-instar Spodoptera exigua larvae assessed as per pupa weight at 0.2 g/l by pupa weight inhibition assay (reference value: 0.1054 +/- 0.01 g/pupae); format: functional
# Spodoptera exigua [9] = test: Insecticidal activity against third-instar Spodoptera exigua larvae assessed as per pupa weight at 0.1 g/l by pupa weight inhibition assay (reference value: 0.1054 +/- 0.01 g/pupae); format: functional
# Spodoptera exigua [10] = test: Insecticidal activity against third-instar Spodoptera exigua larvae assessed as mortality at 8 g/l measured after 9 days; format: functional; conditions: 216 h
# Spodoptera exigua [11] = test: Insecticidal activity against third-instar Spodoptera exigua larvae assessed as mortality at 4 g/l measured after 9 days; format: functional; conditions: 216 h
# Spodoptera exigua [12] = test: Insecticidal activity against third-instar Spodoptera exigua larvae assessed as mortality at 2 g/l measured after 9 days; format: functional; conditions: 216 h
# Spodoptera exigua [13] = test: Insecticidal activity against third-instar Spodoptera exigua larvae assessed as mortality at 16 g/l measured after 7 days; format: functional; conditions: 168 h
# Spodoptera exigua [14] = test: Insecticidal activity against third-instar Spodoptera exigua larvae assessed as mortality at 8 g/l measured after 7 days; format: functional; conditions: 168 h
# Spodoptera exigua [15] = test: Insecticidal activity against third-instar Spodoptera exigua larvae assessed as mortality at 4 g/l measured after 7 days; format: functional; conditions: 168 h
# Spodoptera exigua [16] = test: Insecticidal activity against third-instar Spodoptera exigua larvae assessed as mortality at 2 g/l measured after 7 days; format: functional; conditions: 168 h
# Spodoptera exigua [17] = test: Insecticidal activity against third-instar Spodoptera exigua larvae assessed as mortality at 16 g/l measured after 5 days; format: functional; conditions: 120 h
# Spodoptera exigua [18] = test: Insecticidal activity against third-instar Spodoptera exigua larvae assessed as mortality at 8 g/l measured after 5 days; format: functional; conditions: 120 h
# Spodoptera exigua [19] = test: Insecticidal activity against third-instar Spodoptera exigua larvae assessed as mortality at 4 g/l measured after 5 days; format: functional; conditions: 120 h
# Spodoptera exigua [20] = test: Insecticidal activity against third-instar Spodoptera exigua larvae assessed as mortality at 2 g/l measured after 5 days; format: functional; conditions: 120 h
# Spodoptera exigua [21] = test: Insecticidal activity against third-instar Spodoptera exigua larvae assessed as mortality at 16 g/l measured after 3 days; format: functional; conditions: 72 h
# Spodoptera exigua [22] = test: Insecticidal activity against third-instar Spodoptera exigua larvae assessed as mortality at 8 g/l measured after 3 days; format: functional; conditions: 72 h
# Spodoptera exigua [23] = test: Insecticidal activity against third-instar Spodoptera exigua larvae assessed as mortality at 4 g/l measured after 3 days; format: functional; conditions: 72 h
# Spodoptera exigua [24] = test: Insecticidal activity against third-instar Spodoptera exigua larvae assessed as mortality at 2 g/l measured after 3 days; format: functional; conditions: 72 h
# [25] = molecular target: T1, Phenol oxidase (Plutella xylostella) (UniProt B5U2Z5); test: In vivo inhibition of Spodoptera exigua larvae phenoloxidase
# T1 sequence (whole entry): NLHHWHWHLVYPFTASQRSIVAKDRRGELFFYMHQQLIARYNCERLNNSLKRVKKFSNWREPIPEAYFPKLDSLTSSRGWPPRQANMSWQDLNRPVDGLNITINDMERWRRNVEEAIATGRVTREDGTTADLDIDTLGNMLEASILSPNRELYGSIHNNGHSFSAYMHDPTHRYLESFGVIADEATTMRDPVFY
# [26] = molecular target: T1, Phenol oxidase (Plutella xylostella); test: Inhibition of Spodoptera exigua larvae phenoloxidase assessed as remaining activity at 0.45 mmol/l
# [27] = molecular target: T1, Phenol oxidase (Plutella xylostella); test: Inhibition of Spodoptera exigua larvae phenoloxidase assessed as remaining activity at 0.15 mmol/l
# Spodoptera exigua [28] = test: Insecticidal activity against third-instar Spodoptera exigua larvae assessed as mortality treated after 11 days; format: functional; conditions: 264 h
# Spodoptera exigua [29] = test: Insecticidal activity against third-instar Spodoptera exigua larvae assessed as mortality treated after 9 days; format: functional; conditions: 216 h
# Spodoptera exigua [30] = test: Insecticidal activity against third-instar Spodoptera exigua larvae assessed as mortality treated after 7 days; format: functional; conditions: 168 h
# Spodoptera exigua [31] = test: Insecticidal activity against third-instar Spodoptera exigua larvae assessed as eclosion at 1.6 g/l (reference value: 96.67 +/- 1.40%); format: functional
# Spodoptera exigua [32] = test: Insecticidal activity against third-instar Spodoptera exigua larvae assessed as eclosion at 0.8 g/l (reference value: 96.67 +/- 1.40%); format: functional
# Spodoptera exigua [33] = test: Insecticidal activity against third-instar Spodoptera exigua larvae assessed as eclosion at 0.4 g/l (reference value: 96.67 +/- 1.40%); format: functional
# Spodoptera exigua [34] = test: Insecticidal activity against third-instar Spodoptera exigua larvae assessed as eclosion at 0.2 g/l (reference value: 96.67 +/- 1.40%); format: functional
# Spodoptera exigua [35] = test: Insecticidal activity against third-instar Spodoptera exigua larvae assessed as eclosion at 0.1 g/l (reference value: 96.67 +/- 1.40%); format: functional
# Spodoptera exigua [36] = test: Insecticidal activity against third-instar Spodoptera exigua larvae assessed as pupation at 1.6 g/l (reference value: 96.67 +/- 1.40%); format: functional
# Spodoptera exigua [37] = test: Insecticidal activity against third-instar Spodoptera exigua larvae assessed as inhibition of body weight increase at 16 g/l measured from 24 hr to 48 hr; format: functional
# Spodoptera exigua [38] = test: Insecticidal activity against third-instar Spodoptera exigua larvae assessed as inhibition of body weight increase at 8 g/l measured from 24 hr to 48 hr; format: functional
# Spodoptera exigua [39] = test: Insecticidal activity against third-instar Spodoptera exigua larvae assessed as inhibition of body weight increase at 4 g/l measured from 24 hr to 48 hr; format: functional
# Spodoptera exigua [40] = test: Insecticidal activity against third-instar Spodoptera exigua larvae assessed as inhibition of body weight increase at 2 g/l measured from 24 hr to 48 hr; format: functional
# Spodoptera exigua [41] = test: Insecticidal activity against third-instar Spodoptera exigua larvae assessed as inhibition of body weight increase at 1 g/l measured from 24 hr to 48 hr; format: functional
# Spodoptera exigua [42] = test: Insecticidal activity against third-instar Spodoptera exigua larvae assessed as mortality treated after 5 days; format: functional; conditions: 120 h
# Spodoptera exigua [43] = test: Insecticidal activity against third-instar Spodoptera exigua larvae assessed as mortality at 16 g/l measured after 11 days; format: functional; conditions: 264 h
# Spodoptera exigua [44] = test: Insecticidal activity against third-instar Spodoptera exigua larvae assessed as mortality at 8 g/l measured after 11 days; format: functional; conditions: 264 h
# Spodoptera exigua [45] = test: Insecticidal activity against third-instar Spodoptera exigua larvae assessed as mortality at 4 g/l measured after 11 days; format: functional; conditions: 264 h
# Spodoptera exigua [46] = test: Insecticidal activity against third-instar Spodoptera exigua larvae assessed as mortality at 2 g/l measured after 11 days; format: functional; conditions: 264 h
# Spodoptera exigua [47] = test: Insecticidal activity against third-instar Spodoptera exigua larvae assessed as mortality at 16 g/l measured after 9 days; format: functional; conditions: 216 h
structure (smiles),measurement,setting,value
O=c1cc(-c2ccc(O)c(O)c2)oc2cc(O)cc(O)c12 [LUTEOLIN],Activity,Spodoptera exigua [1],53.33%
same,Activity,Spodoptera exigua [2],70%
same,Activity,Spodoptera exigua [3],90%
same,Activity,Spodoptera exigua [4],96.67%
same,Activity,Spodoptera exigua [5],0.0647 g
same,Activity,Spodoptera exigua [6],0.0743 g
same,Activity,Spodoptera exigua [7],0.0798 g
same,Activity,Spodoptera exigua [8],0.0898 g
same,Activity,Spodoptera exigua [9],0.0905 g
same,mortality at 8000 µg/mL,Spodoptera exigua [10],72.9%
same,mortality at 4000 µg/mL,Spodoptera exigua [11],57.4%
same,mortality at 2000 µg/mL,Spodoptera exigua [12],33.8%
same,mortality at 16000 µg/mL,Spodoptera exigua [13],74.5%
same,mortality at 8000 µg/mL,Spodoptera exigua [14],57.7%
same,mortality at 4000 µg/mL,Spodoptera exigua [15],48.5%
same,mortality at 2000 µg/mL,Spodoptera exigua [16],26.3%
same,mortality at 16000 µg/mL,Spodoptera exigua [17],60.6%
same,mortality at 8000 µg/mL,Spodoptera exigua [18],47.3%
same,mortality at 4000 µg/mL,Spodoptera exigua [19],38%
same,mortality at 2000 µg/mL,Spodoptera exigua [20],15.8%
same,mortality at 16000 µg/mL,Spodoptera exigua [21],33.2%
same,mortality at 8000 µg/mL,Spodoptera exigua [22],29.8%
same,mortality at 4000 µg/mL,Spodoptera exigua [23],23.5%
same,mortality at 2000 µg/mL,Spodoptera exigua [24],10.1%
same,inhibition,[25],Active
same,Activity,[26],45.3%
same,Activity,[27],67.2%
same,LC50,Spodoptera exigua [28],2530 µg/mL
same,LC50,Spodoptera exigua [29],3540 µg/mL
same,LC50,Spodoptera exigua [30],5560 µg/mL
same,Activity,Spodoptera exigua [31],36.67%
same,Activity,Spodoptera exigua [32],43.33%
same,Activity,Spodoptera exigua [33],66.67%
same,Activity,Spodoptera exigua [34],83.33%
same,Activity,Spodoptera exigua [35],86.67%
same,Activity,Spodoptera exigua [36],36.67%
same,inhibition at 16000 µg/mL,Spodoptera exigua [37],66.8%
same,inhibition at 8000 µg/mL,Spodoptera exigua [38],56.8%
same,inhibition at 4000 µg/mL,Spodoptera exigua [39],49.6%
same,inhibition at 2000 µg/mL,Spodoptera exigua [40],42.7%
same,inhibition at 1000 µg/mL,Spodoptera exigua [41],38%
same,LC50,Spodoptera exigua [42],8970 µg/mL
same,mortality at 16000 µg/mL,Spodoptera exigua [43],90.5%
same,mortality at 8000 µg/mL,Spodoptera exigua [44],77.7%
same,mortality at 4000 µg/mL,Spodoptera exigua [45],61%
same,mortality at 2000 µg/mL,Spodoptera exigua [46],42.6%
same,mortality at 16000 µg/mL,Spodoptera exigua [47],84.1%
